Data: ChEMBL document CHEMBL1143176, “Design, synthesis, and biological activity of piperidine diamine derivatives as factor Xa inhibitor” (Bioorg Med Chem Lett, 2008)
pIC50: −log10 of the molar value. Values after ≈ are worked out from the molar mass of the structure shown.

Tests used:
[1] = Metabolic stability assessed as half life in human liver microsome; assay type: ADME; settings: liver microsomes
[2] = Solubility in japanese pharmacopoeia second fluid at pH 6.8; assay type: physicochemical
[3] = Metabolic stability assessed as intrinsic clearance in human liver microsome; assay type: ADME; settings: liver microsomes
Coagulation factor X = Coagulation factor X (Homo sapiens, UniProt P00742); test: Inhibition of human factor 10a
Plasma = test: Anticoagulant activity in human plasma assessed as concentration required to double prothrombin time; assay type: functional
Rattus norvegicus [4] = test: Ex vivo inhibition of factor 10a in Wistar rat plasma at 10 mg/kg, po after 4 hrs; assay type: functional
Rattus norvegicus [5] = test: Ex vivo inhibition of factor 10a in Wistar rat plasma at 10 mg/kg, po after 0.5 hrs; assay type: functional
Rattus norvegicus [6] = test: Ex vivo inhibition of factor 10a in Wistar rat plasma at 10 mg/kg, po after 1 hr; assay type: functional
Rattus norvegicus [7] = test: Ex vivo inhibition of factor 10a in Wistar rat plasma at 10 mg/kg, po after 2 hrs; assay type: functional
[8] = Cmax in monkey at 1.0 mg/kg, po; assay type: ADME, organism-based, Macaca mulatta; parameters: dose 1 mg/kg, route oral; settings: rhesus monkey, in vivo
[9] = AUC (0 to 24 hrs) in monkey at 1.0 mg/kg, po; assay type: ADME, organism-based, Macaca mulatta; parameters: time < 24 hr, dose 1 mg/kg, route oral; settings: rhesus monkey, plasma
[10] = Tmax in monkey at 1.0 mg/kg, po; assay type: ADME, organism-based, Macaca mulatta; parameters: dose 1 mg/kg, route oral; settings: rhesus monkey, in vivo

Chain of Coagulation factor X (P00742 41-179 limits assumed): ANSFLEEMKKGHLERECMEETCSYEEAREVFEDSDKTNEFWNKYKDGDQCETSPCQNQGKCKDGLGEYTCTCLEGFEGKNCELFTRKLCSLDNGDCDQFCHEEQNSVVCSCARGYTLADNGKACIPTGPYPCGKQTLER
Chain of Coagulation factor X (P00742 235-488 limits assumed): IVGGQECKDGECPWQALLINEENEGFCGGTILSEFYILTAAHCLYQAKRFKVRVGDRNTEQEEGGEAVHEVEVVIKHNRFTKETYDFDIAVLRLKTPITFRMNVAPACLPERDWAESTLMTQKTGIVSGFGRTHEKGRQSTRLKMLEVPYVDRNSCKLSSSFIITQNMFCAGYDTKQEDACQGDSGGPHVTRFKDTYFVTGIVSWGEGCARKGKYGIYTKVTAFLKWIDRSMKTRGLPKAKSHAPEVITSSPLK

| Compound | half-life [1] [min] | solubility [2] [µg/mL] | CLint scaled [3] [mL/min/kg] | pIC50 (Coagulation factor X) | Activity (Plasma) [µM] | further results |
| --- | --- | --- | --- | --- | --- | --- |
| CN1CCc2nc(C(=O)N[C@@H]3CCCC[C@@H]3NC(=O)c3cc4cc(Cl)ccc4[nH]3)sc2C1 | 6.42 | 16 (≈ 33.9 µM) | 97.2 | – | – | – |
| CC(C)C(=O)N1CC[C@H](NC(=O)c2cc3cc(Cl)ccc3[nH]2)[C@H](NC(=O)c2nc3c(s2)CN(C)CC3)C1 | – | 66 (≈ 122 µM) | – | 8.25 | 1.1 | – |
| CN1CCc2nc(C(=O)N[C@@H]3CN(C(=O)CO)CC[C@@H]3NC(=O)c3cc4cc(Cl)ccc4[nH]3)sc2C1 | – | 410 (≈ 772 µM) | – | 8.03 | 0.9 | inhibition in vivo at 10 mg/kg (Rattus norvegicus [4]): -7.3%; inhibition in vivo at 10 mg/kg (Rattus norvegicus [5]): 0.76%; inhibition in vivo at 10 mg/kg (Rattus norvegicus [6]): -2%; inhibition in vivo at 10 mg/kg (Rattus norvegicus [7]): -2.5% |
| COC(=O)CN1CC[C@H](NC(=O)c2cc3cc(Cl)ccc3[nH]2)[C@H](NC(=O)c2nc3c(s2)CN(C)CC3)C1 | – | 28 (≈ 51.4 µM) | – | 7.25 | 2.1 | – |
| COCCN1CC[C@H](NC(=O)c2cc3cc(Cl)ccc3[nH]2)[C@H](NC(=O)c2nc3c(s2)CN(C)CC3)C1 | – | 130 (≈ 245 µM) | – | 7.33 | 3.8 | – |
| CN1CCc2nc(C(=O)N[C@@H]3CN(C(=O)NC(C)(C)C)CC[C@@H]3NC(=O)c3cc4cc(Cl)ccc4[nH]3)sc2C1 | – | 39 (≈ 68.2 µM) | – | 8.32 | 0.78 | – |
| CCC(=O)N1CC[C@H](NC(=O)c2cc3cc(Cl)ccc3[nH]2)[C@H](NC(=O)c2nc3c(s2)CN(C)CC3)C1 | – | 160 (≈ 302 µM) | – | 8.05 | 0.78 | – |
| COCC(=O)N1CC[C@H](NC(=O)c2cc3cc(Cl)ccc3[nH]2)[C@H](NC(=O)c2nc3c(s2)CN(C)CC3)C1 | – | 510 (≈ 936 µM) | – | 8.24 | 0.78 | inhibition in vivo at 10 mg/kg (Rattus norvegicus [4]): 16%; inhibition in vivo at 10 mg/kg (Rattus norvegicus [5]): 68%; inhibition in vivo at 10 mg/kg (Rattus norvegicus [6]): 50%; inhibition in vivo at 10 mg/kg (Rattus norvegicus [7]): 38% |
| CCNC(=O)N1CC[C@H](NC(=O)c2cc3cc(Cl)ccc3[nH]2)[C@H](NC(=O)c2nc3c(s2)CN(C)CC3)C1 | – | 220 (≈ 404 µM) | – | 8.11 | 0.8 | inhibition in vivo at 10 mg/kg (Rattus norvegicus [4]): 4.3%; inhibition in vivo at 10 mg/kg (Rattus norvegicus [5]): 16.7%; inhibition in vivo at 10 mg/kg (Rattus norvegicus [6]): 11.4%; inhibition in vivo at 10 mg/kg (Rattus norvegicus [7]): 5.3% |
| CN1CCc2nc(C(=O)N[C@@H]3CN(C(=O)N(C)C)CC[C@@H]3NC(=O)c3cc4cc(Cl)ccc4[nH]3)sc2C1 | – | 56 (≈ 103 µM) | – | – | – | inhibition in vivo at 10 mg/kg (Rattus norvegicus [4]): 68.1%; inhibition in vivo at 10 mg/kg (Rattus norvegicus [5]): 80.2%; inhibition in vivo at 10 mg/kg (Rattus norvegicus [6]): 78.6%; inhibition in vivo at 10 mg/kg (Rattus norvegicus [7]): 73.7% |
| CN1CCc2nc(C(=O)N[C@@H]3CN(CC(=O)O)CC[C@@H]3NC(=O)c3cc4cc(Cl)ccc4[nH]3)sc2C1 | – | 723 (≈ 1360 µM) | – | 7.59 | 1.8 | – |
| CN1CCc2nc(C(=O)N[C@@H]3CCCC[C@@H]3NC(=O)c3cc4cc(Cl)ccc4[nH]3)sc2C1.Cl | – | – | – | – | – | Cmax [8]: 23.3 ng/mL; AUC(0-t) at 24 h [9]: 56.6 ng·h/mL; Tmax [10]: 120 min |
| COCC(=O)N1CC[C@H](NC(=O)c2cc3cc(Cl)ccc3[nH]2)[C@H](NC(=O)c2nc3c(s2)CN(C)CC3)C1.Cl | – | – | – | – | – | Cmax [8]: 36.4 ng/mL; AUC(0-t) at 24 h [9]: 83.6 ng·h/mL; Tmax [10]: 72 min |
| CCC(=O)N1CCC(NC(=O)c2cc3cc(Cl)ccc3[nH]2)C(NC(=O)c2nc3c(s2)CN(C)CC3)C1 (racemic) | 6.08 | – | 103 | – | – | – |
| COCC(=O)N1CCC(NC(=O)c2cc3cc(Cl)ccc3[nH]2)C(NC(=O)c2nc3c(s2)CN(C)CC3)C1 (racemic) | 13.6 | – | 45.9 | – | – | – |
| CN1CCc2nc(C(=O)NC3CN(C(=O)CO)CCC3NC(=O)c3cc4cc(Cl)ccc4[nH]3)sc2C1 (racemic) | 15.1 | – | 41.4 | – | – | – |

| Compound | half-life [1] [min] | solubility [2] [µg/mL] | CLint scaled [3] [mL/min/kg] | pIC50 (Coagulation factor X) | Activity (Plasma) [µM] | further results |
| --- | --- | --- | --- | --- | --- | --- |
| CC(=O)N1CCC(NC(=O)c2cc3cc(Cl)ccc3[nH]2)C(NC(=O)c2nc3c(s2)CN(C)CC3)C1 (racemic) | 6.54 | 421 (≈ 817 µM) | 95.4 | – | – | – |
| CN1CCc2nc(C(=O)NC3CN(C(=O)N(C)C)CCC3NC(=O)c3cc4cc(Cl)ccc4[nH]3)sc2C1 (racemic) | 6.73 | – | 92.7 | – | – | – |
| CN1CCc2nc(C(=O)NC3CCCCC3NC(=O)c3cc4cc(Cl)ccc4[nH]3)sc2C1 (racemic) | 7.7 | 17 (≈ 36 µM) | 81 | – | 4.4 | – |
| CCOC(=O)N1CCC(NC(=O)c2nc3c(s2)CN(C)CC3)C(NC(=O)c2cc3cc(Cl)ccc3[nH]2)C1 (racemic) | – | 37 (≈ 67.9 µM) | – | 6.96 | 11 | – |
| CC(=O)N1CCC(NC(=O)c2nc3c(s2)CN(C)CC3)C(NC(=O)c2cc3cc(Cl)ccc3[nH]2)C1 (racemic) | – | 290 (≈ 563 µM) | – | 7.32 | 5.8 | – |
| CCOC(=O)N1CCC(NC(=O)c2cc3cc(Cl)ccc3[nH]2)C(NC(=O)c2nc3c(s2)CN(C)CC3)C1 (racemic) | 4.53 | 43 (≈ 78.9 µM) | 138 | 8.35 | 1.4 | – |
| CN1CCc2nc(C(=O)NC3CNCCC3NC(=O)c3cc4cc(Cl)ccc4[nH]3)sc2C1 (racemic) | – | 996 (≈ 2110 µM) | – | 7.21 | 1.3 | – |
| CN1CCc2nc(C(=O)NC3CCN(C(=O)OC(C)(C)C)CC3NC(=O)c3cc4cc(Cl)ccc4[nH]3)sc2C1 (racemic) | – | < 1 | – | 6.89 | 6.2 | – |
| CN1CCc2nc(C(=O)NC3CN(C(=O)NC(C)(C)C)CCC3NC(=O)c3cc4cc(Cl)ccc4[nH]3)sc2C1 (racemic) | 6.24 | – | 99.9 | – | – | – |
| CN1CCc2nc(C(=O)NC3CN(C(=O)OC(C)(C)C)CCC3NC(=O)c3cc4cc(Cl)ccc4[nH]3)sc2C1 (racemic) | 4.44 | 3 (≈ 5.23 µM) | 140 | 8.00 | 3.5 | – |
| CN1CCc2nc(C(=O)NC3CCN(S(C)(=O)=O)CC3NC(=O)c3cc4cc(Cl)ccc4[nH]3)sc2C1 (racemic) | – | 70 (≈ 127 µM) | – | 7.35 | 8 | – |
| CN1CCc2nc(C(=O)NC3CCNCC3NC(=O)c3cc4cc(Cl)ccc4[nH]3)sc2C1 (racemic) | – | 830 (≈ 1750 µM) | – | 6.28 | >20 | – |
| CC(C)C(=O)N1CCC(NC(=O)c2cc3cc(Cl)ccc3[nH]2)C(NC(=O)c2nc3c(s2)CN(C)CC3)C1 (racemic) | 6.36 | – | 98.1 | – | – | – |
| CCNC(=O)N1CCC(NC(=O)c2cc3cc(Cl)ccc3[nH]2)C(NC(=O)c2nc3c(s2)CN(C)CC3)C1 (racemic) | 7.22 | – | 86.4 | – | – | – |
| CN1CCc2nc(C(=O)NC3CN(S(C)(=O)=O)CCC3NC(=O)c3cc4cc(Cl)ccc4[nH]3)sc2C1 (racemic) | – | 103 (≈ 187 µM) | – | 7.55 | 2.5 | – |
